Reference: patent US20230276792A1, “SELECTIVE HERBICIDES BASED ON SUBSTITUTED ISOXAZOLIN CARBOXAMIDES AND CLOQUINTOCET-MEXYL” (Bayer Aktiengesellschaft, priority 2020, published 2023)

Experiments:
Type in all cases: in vivo
[1] = test system: spring barley, HORVS Montoya; assay: Tank-mix post-emergence crop damage, herbicide with and without safener cloquintocet-mexyl, greenhouse; parameters: key to Reduction [Difference]: damage without safener − damage with safener, % points (0–100% scale); details: 10 DAT
Method: Seeds of crops (spring wheat, TRZAS; spring barley, HORVS; maize, ZEAMA) were placed in sandy loam soil in peat pots, covered with soil and cultivated in a greenhouse under good growth conditions. Two to three weeks after sowing, the test plants were treated at the 1 to 3-leaf stage. The herbicide/safener active compound combinations according to the invention, formulated as wettable powders or emulsion concentrates, and, in parallel tests, the correspondingly formulated individual active compounds were sprayed onto the green parts of the plants in various dosages using an amount of water of 300 l/ha (converted).
The pots were returned under good growing conditions in a glasshouse and a visual assessment of herbicidal effects was made at intervals from 1 to 3 weeks after herbicide application (DAT=days after treatment). Assessment was on a percentage basis in comparison with untreated control plants (0%=no injury, 100%=complete kill).
(§1) Reduction [Difference]=herbicide damage without safener−herbicide damage with safener
(§2) Reduction [%]=(Reduction [Difference]*100)/herbicide damage without safener
(§3) a) Plant Species, Variety: HORVS Montoya, Safener (SAF): Cloquintocet-Mexyl

[2] = test system: spring barley, HORVS Montoya; assay: Safener seed treatment, post-emergence herbicide application, crop damage; parameters: key to Reduction [Difference]: % crop damage without safener minus % damage with safener; details: for HER effect + SAF / Reduction [%] / Reduction [Difference]: cloquintocet-mexyl 0, 5 g a.i./kg seed
Source text: (§4) For safener seed treatment trials, sufficient seed amounts of the respective crops (spring wheat (TRZAS); spring barley (HORVS)) were weighed into screw cap glass bottles with a minimum volume trice of the seeds.
(§5) As a first step, specified safeners formulated as wettable powder (WP) or wettable granules (WG) were weighed out for the required dosages (g a.i./kg seed), corresponding to the seed amounts. The safener amounts were mixed with a coloured slurry blind formulation type, pre-diluted with milk at 3.5% fat rate (25 mgs slurry formulation plus 2 ml milk per 10 grams of seed). A tube roller was used for coating. The solutions were gradually pipetted each on the rotating seeds followed by coating for min. 3 hours until all liquid had been soaked up by the seeds. Thereafter, the coated seeds were put flat on open trays for drying over night at room temperature.
(§6) Treated seeds were then placed into pots (7 cm diameter) on the surface of sandy loam, pressed down, flat covered with additional soil and finally covered with sandy soil, also pressed down, watered, and kept under good growth conditions in a greenhouse, until the plants had reached 2-leaf-stage (BBCH 12).
(§7) At that stage, post-emergence application of the specified herbicides was done on: • a) pot sets containing plants with safener-coated seeds as described above, • b) as a reference, pot sets of plants without seed treatment.
(§8) The herbicides were formulated as wettable powder (WP). Equivalent to the spray area, compound amounts were weighed out and diluted related to the water application rate (300 l/ha) to an aqueous suspension plus additive (1 l/ha MERO). Dosage related equivalents were conventionally sprayed on trays with the potted plants.
(§9) After application, the test plants were kept under good growth conditions in a greenhouse. Assessment timings were 10 and 21 days after treatment (DAT) with the herbicide, by visual scoring of the crop damage in % (comparison of untreated with treated plants, either sprayed only with herbicide or with herbicide on plants with treated seeds).
as §1, §2, §3

[3] = test system: spring wheat, TRZAS Triso; assay: as above; details: for HER effect + SAF [%] / Reduction [%]: cloquintocet-mexyl 0, 5 g a.i./kg seed; for HER effect [%]: without safener
Source text: as §4, §5, §6, §7, §8, §9, §1, §2
b) Plant Species, Variety: TRZAS Triso, Safener (SAF): Cloquintocet-Mexyl

[4] = HER dose 1 g a.i./ha, cloquintocet-mexyl 50 g a.i./ha
[5] = HER dose 8 g a.i./ha, cloquintocet-mexyl 50 g a.i./ha
[6] = 21 DAT, HER dose 1, 5 g a.i./ha
[7] = HER dose 32 g a.i./ha, cloquintocet-mexyl 100 g a.i./ha

SMILES: CC1(C(=O)NC2C=CC(C(=O)O)C2)CC(c2cc(F)cc(F)c2)=NO1 (centres unmarked) [Example 1.36]
- Reduction [%] [1, 4]: 38%
- Reduction [Difference] [1, 4]: 30
- HER effect + SAF ([2]; 21 DAT, HER dose 1 g a.i./ha): 10%
- Reduction [%] ([2]; 21 DAT, HER dose 1 g a.i./ha): 67%
- HER effect ([2]; 21 DAT, HER dose 1 g a.i./ha, without safener): 30%
- Reduction [%] ([2]; 21 DAT, HER dose 4 g a.i./ha): 78%
- Reduction [Difference] ([2]; 21 DAT, HER dose 4 g a.i./ha): 73
- HER effect + SAF ([2]; 21 DAT, HER dose 16 g a.i./ha): 40%
- Reduction [%] ([2]; 21 DAT, HER dose 16 g a.i./ha): 58%
- Reduction [Difference] ([2]; 21 DAT, HER dose 16 g a.i./ha): 55
- HER effect + SAF [%] ([3]; 21 DAT, HER dose 1 g a.i./ha): 0%
- HER effect [%] ([3]; 21 DAT, HER dose 1 g a.i./ha): 85%
- HER effect + SAF [%] ([3]; 21 DAT, HER dose 4 g a.i./ha): 60%
- Reduction [%] ([3]; 21 DAT, HER dose 4 g a.i./ha): 35%
- HER effect [%] ([3]; 21 DAT, HER dose 4 g a.i./ha): 93%
- HER effect + SAF [%] ([3]; 21 DAT, HER dose 16 g a.i./ha): 70%
- HER effect [%] ([3]; 21 DAT, HER dose 16 g a.i./ha): 95%

SMILES: COC(=O)C1(C)CC(NC(=O)C2(C(C)(F)F)CC(c3cc(F)cc(F)c3)=NO2)CO1 (mixture of isomers) [Example 1.94]
- Reduction [Difference] [1, 5]: 90
- Reduction [Difference] ([2]; 10 DAT, HER dose 8 g a.i./ha): 90
- Reduction [%] ([2]; 10 DAT, HER dose 32 g a.i./ha): 89%
- Reduction [Difference] ([2]; 10 DAT, HER dose 32 g a.i./ha): 80
- HER effect + SAF [%] [3, 6]: 0%
- HER effect [%] [3, 6]: 20%
- HER effect + SAF [%] ([3]; 21 DAT, HER dose 6 g a.i./ha): 10%
- HER effect [%] ([3]; 21 DAT, HER dose 6 g a.i./ha): 85%
- HER effect + SAF [%] ([3]; 21 DAT, HER dose 24 g a.i./ha): 20%
- HER effect [%] ([3]; 21 DAT, HER dose 24 g a.i./ha): 85%

SMILES: COC(=O)C1COCC1NC(=O)C1(C)CC(c2cc(F)cc(F)c2)=NO1 (mixture of isomers) [Example 1.93]
- HER effect + SAF [1, 5]: 60%
- Reduction [%] [1, 5]: 29%
- Reduction [Difference] [1, 5]: 25
- HER effect + SAF [1, 7]: 60%
- Reduction [%] [1, 7]: 33%
- Reduction [Difference] [1, 7]: 30
- HER effect + SAF ([2]; 10 DAT, HER dose 32 g a.i./ha): 20%
- Reduction [%] ([2]; 10 DAT, HER dose 32 g a.i./ha): 78%
- Reduction [Difference] ([2]; 10 DAT, HER dose 32 g a.i./ha): 70
- HER effect + SAF [%] ([3]; 21 DAT, HER dose 2 g a.i./ha): 0%
- HER effect [%] ([3]; 21 DAT, HER dose 2 g a.i./ha): 85%
- HER effect + SAF [%] ([3]; 21 DAT, HER dose 8 g a.i./ha): 10%
- HER effect [%] ([3]; 21 DAT, HER dose 8 g a.i./ha): 93%
- HER effect + SAF [%] ([3]; 21 DAT, HER dose 32 g a.i./ha): 10%
- HER effect [%] ([3]; 21 DAT, HER dose 32 g a.i./ha): 95%

SMILES: C=CC1(C(=O)NC2COC(C(=O)OCCOC)C2)CC(c2cc(C)cc(F)c2)=NO1 (mixture of isomers) [Example 1.65]
- Reduction [Difference] ([2]; 10 DAT, HER dose 8 g a.i./ha): 80
- HER effect + SAF ([2]; 10 DAT, HER dose 32 g a.i./ha): 10%
- Reduction [%] ([2]; 10 DAT, HER dose 32 g a.i./ha): 88%
- Reduction [Difference] ([2]; 10 DAT, HER dose 32 g a.i./ha): 70
- HER effect + SAF [%] ([3]; 10 DAT, HER dose 8 g a.i./ha): 0%
- HER effect [%] ([3]; 10 DAT, HER dose 8 g a.i./ha): 20%

SMILES: CC1(C(=O)NC2CC=C(C(=O)NS(C)(=O)=O)C2)CC(c2cc(F)cc(F)c2)=NO1 (mixture of isomers) [Example 1.61]
- HER effect + SAF [%] ([3]; 10 DAT, HER dose 8 g a.i./ha): 0%
- Reduction [%] ([3]; 10 DAT, HER dose 8 g a.i./ha): 100%
- HER effect [%] ([3]; 10 DAT, HER dose 8 g a.i./ha): 50%
- HER effect + SAF [%] ([3]; 10 DAT, HER dose 32 g a.i./ha): 0%
- Reduction [%] ([3]; 10 DAT, HER dose 32 g a.i./ha): 100%
- HER effect [%] ([3]; 10 DAT, HER dose 32 g a.i./ha): 50%

SMILES: CCOC(=O)C1CC(NC(=O)C2(C)CC(c3cccc(F)c3)=NO2)CO1 (mixture of isomers) [Example 1.67]
- Reduction [%] ([1]; HER dose 16 g a.i./ha, cloquintocet-mexyl 100 g a.i./ha): 83%
- Reduction [%] ([2]; 10 DAT, HER dose 4 g a.i./ha): 67%
- Reduction [Difference] ([2]; 10 DAT, HER dose 4 g a.i./ha): 20
- Reduction [%] ([2]; 10 DAT, HER dose 16 g a.i./ha): 67%
- HER effect + SAF [%] ([3]; 10 DAT, HER dose 4 g a.i./ha): 10%
- HER effect [%] ([3]; 10 DAT, HER dose 4 g a.i./ha): 50%
- HER effect + SAF [%] ([3]; 10 DAT, HER dose 16 g a.i./ha): 20%
- HER effect [%] ([3]; 10 DAT, HER dose 16 g a.i./ha): 70%

SMILES: C=CCOC(=O)C1CC(NC(=O)C2(C=C)CC(c3cc(C)cc(F)c3)=NO2)CO1 (mixture of isomers) [Example 1.85]
- HER effect + SAF ([2]; 10 DAT, HER dose 32 g a.i./ha): 10%
- Reduction [%] ([2]; 10 DAT, HER dose 32 g a.i./ha): 88%
- Reduction [Difference] ([2]; 10 DAT, HER dose 32 g a.i./ha): 70
